Experimental data from patent US20060025419A1, “Imidazoquinoxaline compound for the treatment of melanoma” (priority 2004, published 2006).

Experiments:
SK-Mel-5 cells [1] = test: Nuclear apoptosis (DNA fragmentation) by flow cytometry; assay type: cell-based, human; conditions: for rate of apoptotic cells: 10 μM, 24 h
Description: (§1) FIGS. 4A-4H. […] Paraffin-embedded tumor tissues were subjected to H&E staining (FIGS. 4C & D) and DeadEnd Fluorometric TUNEL-assay for detection of apoptosis (FIGS. 4E & F). The TUNEL-positive cells are visualized in green fluorescence in a red (Propidium Iodide) background by fluorescence microscopy. […] After 36 h incubation, cells were collected and fixed with 1% formaldehyde and 70% ice-cold ethanol. The apoptotic cells were examined using TUNEL-assay and analyzed by flow cytometry through measuring fluorescein-12-dUTP at 520 nm. The apoptotic rate is indicated in each box. Data shown are represented one of three independent experiments. […] Cells were fixed and stained with Propidium iodide. Cell fluorescence was measured by flow cytometry and the data were analyzed using DNA content histogram deconvolution software (Multicycle from Phoenix Flow Systems). The percentage of apoptotic cells with fragmented DNA (PI intensity sub-G0/G1) is indicated at each time point. The experiments were repeated twice, in duplicates for each point (total n=4).

SK-Mel-5 cells [2] = test: Western blot / confocal analysis of apoptotic proteins in subcellular fractions; assay type: cell-based, human; conditions: 10 μM
Description: Subcellular mitochondria and cytoplasm were prepared and subjected to Western blot analysis for Bcl-2 and Bax. […] After exposure, mitochondria were isolated and incubated with 80 μM 3,3′dihexyloxacarbocyanine iodide (DiOC6) at 37° C. for 15 min. Δψm was determined by FACS analysis using 484/530 nm filters within 10 min while gating the forward and sideward scatters on intact mitochondria (FIG. 5C). […] Subcellular extracts were prepared and subjected to Western blot analysis for cytochrome-C and AIF. […] The supernatant was assessed for cytochrome-c release. 200 μM Ca^2+ was used as a positive control.
The cellular caspase-3 activity in samples was detected as described in Materials and Methods. […] Cells were fixed and stained with propidium iodide staining as described in FIG. 4H. The percentage of cell death was measured with flow cytometry. […] Cytosol was extracted and subjected to Western blot analysis for AIF, cytochrome-c (cyto-C) and actin. Actin was used as a loading control protein. […] Ref-1 was used as a nuclear marker protein. All data shown here were from three independent experiments. […] SK-Mel-5 cells were exposed to 10 μM BMS and/or pan-caspase inhibitor (Z-VAD-fmk, 50 μM).
Proteins from cell extracts were separated by 12% SDS-PAGE and electrophoretically transferred to nitrocellulose membranes. Nonspecific binding was blocked with 5% milk in TBST buffer (4 mM Tris base, 100 mM NaCl, pH 7.5, 0.05% Tween), incubated with the indicated primary antibodies with a dilution of 1:1000 at room temperature for 2 h or 4° C. for overnight and then with horseradish peroxidase-conjugated secondary antibody for 1 h. Blots were visualized by enhanced chemiluminescence assay.
The Mitochondria Isolation Kit (Pierce, Rockford, Ill.) was used for isolation of mitochondria from cultured melanoma cells according to the manufacture's instruction for the Reagent-based method. Briefly, cells (2×10^7) were collected, washed with PBS buffer and resuspended in 0.8 ml of Reagent A on ice for 2 min. 10 μl of Reagent B was added and samples were kept on ice, with vortexing very minute for 5 min. After addition of 0.8 ml of Reagent C, the mixture was centrifuged at 700×g for 10 min to remove the cell debris and nuclei. The supernatant was then centrifuged at 3,000×g for 15 min. The pellet (mitochondria) was washed with Reagent C. The purity of mitochondria was determined by Western blotting with β-actin, where β-actin negative preparation were fully to be pure. The supernatant (cytosolic fraction) was further cleared by centrifugation at 12,000×g for 15 min.
Cells were incubated with the anti-AIF polyclonal antibody for 2 h. Cells were washed twice and incubated with the secondary antibody conjugated with FITC for 1 h.

SK-Mel-5 cells [3] = test: TUNEL assay of cultured cells by flow cytometry; assay type: cell-based, human; conditions: 36 h
Description: as §1
In melanoma, constitutive activation of NF-κB confers tumor survival capacity and escape from apoptosis (Richmond, 2002). […] Apoptotic cells were labeled using DeadEnd Fluorometric TUNEL reagent and analyzed by flow cytometry. […] Thirty-six hours after transfection, cells were collected, labeled with TUNEL reagent and analyzed by flow cytometry. […] Induction of DNA fragmentation, a hallmark of apoptosis, was evaluated by staining DNA with ethidium bromide followed by quantization by FACS analysis.

[4] = Body weight and tolerability in treated tumor-bearing mice; assay type: in vivo
[5] = BMS-345541 levels in mouse serum and tumor tissues after oral dose; assay type: in vivo, mice
Description: FIGS. 1A-1E. […] After 72 h treatment, cells were photographed. […] 2×10^6 SK-Mel-5 melanoma cells were subcutaneously inoculated into nude mice (n=5 mice per group). […] Tumor size was measured using an electronic digital caliper at intervals of 4 days. Tumor volume was calculated and statistically analyzed. Data shown are representative of two independent experiments. […] BMS-345541 levels in serum (μM, left axis) and tumor tissues (nmoles per gram tumor protein, right axes) were determined at the indicated time points.
Tumor tissue levels of drug were 3.2±0.97, 12.5±3.28 and 28.1±2.65 nmoles per gram tissue protein for the three treatment groups, respectively.

CXCL1 = CXCL1 ELISA of melanoma cell culture medium; assay type: cell-based, human; conditions: SK-Mel-5 supernatant, 14 h
Description: FIGS. 2A-2D. […] SK-Mel-5 cells were plated in 6-well plates (1.5×10^5 cells per well) and then cotransfected with 1 μg of HIV long terminal repeat NF-κB-luciferase vector and β-galactosidase vector DNA using Lipofectamine Plus reagent. Twenty-four hours after transfection, cells in duplicate plates were treated with 0, 0.1, 1 and 10 μM of BMS-345541in DMSO and incubated for an additional 36 h. Cell extract was prepared and luciferase activity was detected. Luciferase activity was normalized to β-galactosidase activity. […] ATP. The [γ-^32P]-labeled IκBα protein was visualized by autoradiography. […] The supernatants from B were cleared by centrifugation, or (FIG. 2D) sera were collected from mice, and subjected to ELISA assay for CXCL1 according to the manufacture's protocol. Data shown are from a representative data set from two experiments performed in duplicate (total n=4 for each point). For ELISA; the mean value is representative of serum samples from five mice.
To quantify the CXCL1 expression levels in vivo and in vitro, serum was collected at the end of the experiments from mice bearing SK-Mel-5 melanoma tumors or from the cleared supernatants of melanoma cell culture medium. Briefly, 1.5×10^5 of SK-Mel-5 cells/well were seeded in six-well plates in duplicate in DMEM/F12 medium containing 10% FBS.

Cc1ccc2nc(NCCN)c3ncc(C)n3c2c1.Cl [BMS-345541, 4(2′-aminoethyl)amino-1,8-dimethylimidazo(1,2-a)quinoxaline]
rate of apoptotic cells (SK-Mel-5 cells [1]; AIF siRNA-transfected cells): 10.3±3.8%
rate of apoptotic cells (SK-Mel-5 cells [1]; control siRNA-transfected cells): 24.3±6.8%
induction of DNA fragmentation (SK-Mel-5 cells [1]; SK-Mel-5, 10 μM, 0-48 h (FIG. 4H)): time-dependent
time of cytochrome-c release into cytosol (SK-Mel-5 cells [2]): 14 h
time of initiation of AIF release into cytosol (SK-Mel-5 cells [2]): 4 h
release of pro-apoptotic molecules from mitochondria (SK-Mel-5 cells [2]; 24 h, Western blot): mitochondrial cytochrome-c release into the cytoplasm and AIF nuclear translocation
increase in apoptotic cells vs vehicle (TUNEL) (SK-Mel-5 cells [3]; SK-Mel-5, 1.0 μM): 2 fold
increase in apoptotic cells vs vehicle (TUNEL) (SK-Mel-5 cells [3]; SK-Mel-5, 10 μM): 3.3 fold
increase in apoptotic cells vs vehicle (TUNEL) (SK-Mel-5 cells [3]; SK-Mel-5, 100 μM): 4 fold
average loss of body weight ([4]; 10 mg/kg orally once daily): 5%
average loss of body weight ([4]; 25 mg/kg orally once daily): 9%
average loss of body weight ([4]; 75 mg/kg orally once daily): 14%
tolerability in mice ([4]; oral, once daily, 21 days): well tolerated
concentration in tumor tissues ([5]; 75 mg/kg oral, 1.5 h (FIG. 1E)): 19±2.5 nmoles/g tissue protein
concentration in tumor tissues ([5]; 75 mg/kg oral, 3 h (FIG. 1E)): 44±1.5 nmoles/g tissue protein
concentration in tumor tissues ([5]; 75 mg/kg oral, 5 h (FIG. 1E)): 30±1.0 nmoles/g tissue protein
concentration in tumor tissues ([5]; 75 mg/kg oral, 8 h (FIG. 1E)): 29±2.5 nmoles/g tissue protein
concentration in tumor tissues ([5]; 75 mg/kg oral, 24 h (FIG. 1E)): 11±0.83 nmoles/g tissue protein
tumor tissue level ([5]; 8 h after oral dose of 10 mg/kg): 3.2±0.97 nmoles per gram tissue protein
tumor tissue level ([5]; 8 h after oral dose of 25 mg/kg): 12.5±3.28 nmoles per gram tissue protein
tumor tissue level ([5]; 8 h after oral dose of 75 mg/kg (dose series)): 28.1±2.65 nmoles per gram tissue protein
concentration at 1.5 h ([5]; nude, mouse, serum, 75 mg/kg oral, 1.5 h (FIG. 1E)): 6.6 ± 0.31 µM
concentration at 3 h ([5]; nude, mouse, serum, 75 mg/kg oral, 3 h (FIG. 1E)): 18 ± 1.3 µM
concentration at 5 h ([5]; nude, mouse, serum, 75 mg/kg oral, 5 h (FIG. 1E)): 5.2 ± 0.19 µM
concentration at 8 h ([5]; nude, mouse, serum, 75 mg/kg oral, 8 h (FIG. 1E)): 4.1 ± 0.22 µM
concentration at 24 h ([5]; nude, mouse, serum, 75 mg/kg oral, 24 h (FIG. 1E)): 1.1 ± 0.065 µM
concentration at 8 h ([5]; nude, mouse, serum, 8 h after oral dose of 10 mg/kg): 0.9 ± 0.25 µM
concentration at 8 h ([5]; nude, mouse, serum, 8 h after oral dose of 25 mg/kg): 3.1 ± 1.1 µM
concentration at 8 h ([5]; nude, mouse, serum, 8 h after oral dose of 75 mg/kg (dose series)): 8.2 ± 1.1 µM
CXCL1 expression in melanoma cell cultures (CXCL1): suppressed in a concentration-dependent manner
